Laboratory results: BindingDB's records for doi:10.1021/jm960486n (Eli Lilly, 1997)

Experiments:
[1] = target: Phospholipase A2 group IB, pancreatic (Homo sapiens) (UniProt P04054); test: Inhibitory activity against human pancreatic Phospholipase A2
[2] = target: Phospholipase A2, pancreatic group IB (Sus scrofa); test: Inhibitory activity against porcine pancreatic Phospholipase A2

Sequence of Phospholipase A2 group IB, pancreatic (Homo sapiens) (P04054 whole entry, looked up): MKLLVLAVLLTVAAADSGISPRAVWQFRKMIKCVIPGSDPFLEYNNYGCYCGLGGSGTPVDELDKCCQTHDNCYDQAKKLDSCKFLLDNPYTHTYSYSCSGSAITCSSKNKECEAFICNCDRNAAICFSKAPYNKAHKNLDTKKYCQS

| Structure (SMILES) | IC50 [1] | IC50 [2] |
| --- | --- | --- |
| Cc1c(CC(N)=O)c2c(OCC(=O)O)cccc2n1Cc1ccccc1-c1ccccc1 [Sodium; (1-biphenyl-2-ylmethyl-3-carbamoylmethyl-2-methyl-1H-indol-4-yloxy)-acetate] | 4.09 µM | 0.014 µM |
| Cc1c(CC(N)=O)c2c(OCC(=O)O)cccc2n1Cc1cccc(Cl)c1 [Sodium; [3-carbamoylmethyl-1-(3-chloro-benzyl)-2-methyl-1H-indol-4-yloxy]-acetate] | 1.2 µM | 0.02 µM |
| Cc1c(CC(N)=O)c2cc(OCc3ccccc3C(=O)O)ccc2n1Cc1ccccc1 [2-(1-Benzyl-3-carbamoylmethyl-2-methyl-1H-indol-5-yloxymethyl)-benzoic acid] | 22.5 µM | 7.5 µM |
| NC(=O)Cc1c(Br)n(Cc2ccccc2)c2ccc(OCCCC(=O)O)cc12 [4-(1-Benzyl-2-bromo-3-carbamoylmethyl-1H-indol-5-yloxy)-butyric acid] | 15.9 µM | – |
| NC(=O)Cc1c(Br)n(Cc2ccccc2)c2ccc(OCCCP(=O)(O)O)cc12 [[3-(1-Benzyl-2-bromo-3-carbamoylmethyl-1H-indol-5-yloxy)-propyl]-phosphonic acid] | 6.2 µM | 2.2 µM |
